Common to all, as to format: in vivo
The subject of experiment [1] is rice (Oryza sativa). The experiment is described as follows: General postemergence herbicidal activity, ORYSA. Particulars: Oryza sativa, post-emergence, 336 h, postemergence spray, visual score after 14 days, 0 = no injury, 100 = complete kill, read-out: Post-emergent Weed Control ORYSA; for plant injury at 140 g/ha: 140 g ai/ha; for plant injury at 280 g/ha: 280 g ai/ha. Here is the method: (§1) Seeds or nutlets of the desired test plant species were planted in Sun Gro MetroMix® 306 planting mixture, which typically has a pH of 6.0 to 6.8 and an organic matter content of about 30 percent, in plastic pots with a surface area of 103 square centimeters. When required to ensure good germination and healthy plants, a fungicide treatment and/or other chemical or physical treatment was applied. The plants were grown for 7-21 days in a greenhouse with an approximate 15 hour photoperiod which was maintained at about 23-29° C. during the day and 22-28° C. during the night. Nutrients and water were added on a regular basis and supplemental lighting was provided with overhead metal halide 1000-Watt lamps as necessary. The plants were employed for testing when they reached the first or second true leaf stage.
(§2) A weighed amount, determined by the highest rate to be tested, of each test compound was placed in a 25 mL glass vial and was dissolved in 4 mL of a 97:3 v/v (volume/volume) mixture of acetone and dimethyl sulfoxide (DMSO) to obtain concentrated stock solutions. […] The concentrated stock solutions obtained were diluted with 20 mL of an aqueous mixture containing acetone, water, isopropyl alcohol, DMSO, Atplus 411F crop oil concentrate, and Triton® X-155 surfactant in a 48.5:39:10:1.5:1.0:0.02 v/v ratio to obtain spray solutions containing the highest application rates. Additional application rates were obtained by serial dilution of 12 mL of the high rate solution into a solution containing 2 mL of 97:3 v/v (volume/volume) mixture of acetone and dimethyl sulfoxide (DMSO) and 10 mL of an aqueous mixture containing acetone, water, isopropyl alcohol, DMSO, Atplus 411F crop oil concentrate, and Triton X-155 surfactant in a 48.5:39:10:1.5:1.0:0.02 v/v ratio to obtain 1/2X, 1/4X, 1/8X and 1/16X rates of the high rate. Compound requirements are based upon a 12 mL application volume at a rate of 187 L/ha. Formulated compounds were applied to the plant material with an overhead Mandel track sprayer equipped with a 8002E nozzles calibrated to deliver 187 L/ha over an application area of 0.503 square meters at a spray height of 18 inches (43 cm) above the average plant canopy height. Control plants were sprayed in the same manner with the solvent blank.
(§3) The treated plants and control plants were placed in a greenhouse as described above and watered by sub-irrigation to prevent wash-off of the test compounds. After 14 days, the condition of the test plants as compared with that of the untreated plants was determined visually and scored on a scale of 0 to 100 percent where 0 corresponds to no injury and 100 corresponds to complete kill.

Experiment [2] deals with velvetleaf (Abutilon theophrasti). Description: General postemergence herbicidal activity, ABUTH. Conditions: Abutilon theophrasti, post-emergence, 336 h, postemergence spray, visual score after 14 days, 0 = no injury, 100 = complete kill, read-out: Post-emergent Weed Control ABUTH; for pest or weed control at 140 g/ha: 140 g ai/ha; for pest or weed control at 280 g/ha: 280 g ai/ha. Here is the method: as §1, §2, §3

Experiment [3] has as its system barnyardgrass (Echinochloa crus-galli). The experiment is described as follows: General postemergence herbicidal activity, ECHCG. Particulars: Echinochloa crus-galli, post-emergence, 336 h, postemergence spray, visual score after 14 days, 0 = no injury, 100 = complete kill, read-out: Post-emergent Weed Control ECHCG; for pest or weed control at 140 g/ha: 140 g ai/ha; for pest or weed control at 280 g/ha: 280 g ai/ha. Here is the method:
as §1, §2, §3

In experiment [4] the test system is lambsquarter (Chenopodium album). Description: General postemergence herbicidal activity, CHEAL. Particulars: Chenopodium album, post-emergence, 336 h, postemergence spray, visual score after 14 days, 0 = no injury, 100 = complete kill, read-out: Post-emergent Weed Control CHEAL; for pest or weed control at 140 g/ha: 140 g ai/ha; for pest or weed control at 280 g/ha: 280 g ai/ha. Here is the method: as §1, §2, §3

Experiment [5] concerns wild poinsettia (Euphorbia heterophylla). The experiment is described as follows: General postemergence herbicidal activity, EPHHL. Particulars: Euphorbia heterophylla, post-emergence, 336 h, postemergence spray, visual score after 14 days, 0 = no injury, 100 = complete kill, read-out: Post-emergent Weed Control EPHHL; for pest or weed control at 140 g/ha: 140 g ai/ha; for pest or weed control at 280 g/ha: 280 g ai/ha. Here is the method:
as §1, §2, §3

Structures are written as SMILES.

`C=C(F)c1c(N)nc(-c2ccc(Cl)c(OC)c2F)nc1C(=O)OC` [Compound 9, 6-Amino-2-(4-chloro-2-fluoro-3-methoxyphenyl)-5-(1-fluorovinyl) pyrimidine-4-carboxylic acid methyl ester]: the plant injury at 140 g/ha in experiment [1] turned out to be 0%. The pest or weed control at 140 g/ha in experiment [2] is 90%; in experiment [3] it was 90%; in experiment [4], 95%; in experiment [5] it was 100%.

As for `C=C(OCC)c1c(N)nc(-c2ccc(Cl)c(OC)c2F)nc1C(=O)OC` [Compound 10, 6-Amino-2-(4-chloro-2-fluoro-3-methoxyphenyl)-5-(1-ethoxyvinyl)pyrimidine-4-carboxylic acid methyl ester], in experiment [1], the plant injury at 280 g/ha came out at 0%. For the same molecule, the pest or weed control at 280 g/ha stood at 50% in experiment [2], 0% in experiment [3], 40% in experiment [4] and 75% in experiment [5].

Consider `C=Cc1c(N)nc(-c2cc(F)c(Cl)cc2F)nc1C(=O)OC` [Compound 12, 6-Amino-2-(4-chloro-2,5-difluorophenyl)-5-vinylpyrimidine-4-carboxylic acid methyl ester], for which the plant injury at 140 g/ha in experiment [1] came to 0%. Besides, the pest or weed control at 140 g/ha was 100% in experiment [2], 50% in experiment [3], 100% in experiment [4] and 50% in experiment [5].

As to `C=Cc1c(N)nc(-c2cc(C)c(Cl)cc2F)nc1C(=O)OC` [Compound 13, 6-Amino-2-(4-chloro-2-fluoro-5-methylphenyl)-5-vinylpyrimidine-4-carboxylic acid methyl ester], the plant injury at 280 g/ha in experiment [1] was 0%. Besides, the pest or weed control at 280 g/ha in experiment [2] stood at 90%; in experiment [3], 0%; in experiment [4], 100%; in experiment [5], 60%.

With `C=Cc1c(N)nc(-c2ccc(Cl)c(C(F)F)c2F)nc1C(=O)OC` [Compound 15, 6-Amino-2-(4-chloro-3-difluoromethyl-2-fluorophenyl)-5-vinylpyrimidine-4-carboxylic acid methyl ester], the plant injury at 140 g/ha in experiment [1] is 5%. For the same molecule, the pest or weed control at 140 g/ha in experiment [2], in experiment [3], in experiment [4] and in experiment [5] was 100% in each case.

On to `C=Cc1c(N)nc(-c2ccc(Cl)c(F)c2)nc1C(=O)OC` [Compound 16, 6-Amino-2-(4-chloro-3-fluorophenyl)-5-vinylpyrimidine-4-carboxylic acid methyl ester], for which, in experiment [1], the plant injury at 140 g/ha was 0%. The pest or weed control at 140 g/ha in experiment [2] was 100%; in experiment [3], 0%; in experiment [4], 95%; in experiment [5], 80%.

In the case of `C=Cc1c(N)nc(-c2ccc(Cl)c(OC(F)F)c2F)nc1C(=O)OC` [Compound 17, 6-Amino-2-(4-chloro-3-difluoromethoxy-2-fluorophenyl)-5-vinylpyrimidine-4-carboxylic acid methyl ester], the plant injury at 280 g/ha in experiment [1] came to 0%. Further, the pest or weed control at 280 g/ha in experiment [2], in experiment [3], in experiment [4] and in experiment [5] was 100% each time.

Consider `C=Cc1c(N)nc(-c2ccc(Cl)c(OC)c2Cl)nc1C(=O)OC` [Compound 18, 6-Amino-2-(2,4-dichloro-3-methoxyphenyl)-5-vinylpyrimidine-4-carboxylic acid methyl ester], for which the plant injury at 140 g/ha in experiment [1] is 0%. Besides, the pest or weed control at 140 g/ha in experiment [2] stood at 100%; in experiment [3], 90%; in experiment [4], 100%; in experiment [5] it was 40%.

For `C=Cc1c(N)nc(-c2ccc(Cl)c(N(C)C)c2F)nc1C(=O)OC` [Compound 19, 6-Amino-2-(4-chloro-3-dimethylamino-2-fluorophenyl)-5-vinylpyrimidine-4-carboxylic acid methyl ester], the plant injury at 280 g/ha in experiment [1] was determined as 85%. Besides, the pest or weed control at 280 g/ha was found to be 100% in experiment [2], 85% in experiment [3], 100% in experiment [4] and 100% in experiment [5].

In the case of `C=Cc1c(N)nc(-c2ccc(Cl)c(C(C)F)c2)nc1C(=O)OC` (centres unmarked) [Compound 20, 6-Amino-2-[4-chloro-3-(1-fluoroethyl)phenyl]-5-vinylpyrimidine-4-carboxylic acid methyl ester], in experiment [1], the plant injury at 280 g/ha came to 0%. For the same molecule, the pest or weed control at 280 g/ha in experiment [2] worked out at 85%; in experiment [3] it was 70%; in experiment [4], 100%; in experiment [5], 100%.

`C=Cc1c(N)nc(-c2ccc(Cl)c(F)c2)nc1C(=O)O` [Compound 49, 6-Amino-2-(4-chloro-3-fluorophenyl)-5-vinylpyrimidine-4-carboxylic acid]: the plant injury at 140 g/ha in experiment [1] was determined as 0%. Further, the pest or weed control at 140 g/ha is 65% in experiment [2], 100% in experiment [4] and 100% in experiment [5].

For the molecule `C=Cc1c(C(=O)O)nc(-c2ccc(Cl)cc2)c(F)c1N` [Compound 61, 4-Amino-6-(4-chlorophenyl)-5-fluoro-3-vinylpyridine-2-carboxylic acid], the plant injury at 140 g/ha in experiment [1] came out at 50%. In addition, the values for the pest or weed control at 140 g/ha in experiment [2], in experiment [4] and in experiment [5] were 100%, 100% and 95%, respectively.

As to `C=Cc1c(N)nc(-c2ccc(Cl)c(OC)c2F)nc1C(=O)OCCCC` [Compound 62, 6-Amino-2-(4-chloro-2-fluoro-3-methoxyphenyl)-5-vinyl-pyrimidine-4-carboxylic acid butyl ester], the plant injury at 140 g/ha in experiment [1] was found to be 25%. Further, the pest or weed control at 140 g/ha in experiment [2], in experiment [4] and in experiment [5] was 100% in each case.

The values are drawn from patent US8658791B2, “2-substituted-6-amino-5-alkyl, alkenyl or alkynyl-4-pyrimidinecarboxylic acids and 6-substituted-4-amino-3-alkyl, alkenyl or alkynyl picolinic acids and their use as herbicides” (Dow AgroSciences, LLC, priority 2007, dated 2014).
